# Target: PKCθ (Homo sapiens, UniProt Q04759)
# Assay: PKCθ enzyme data at 1 mM ATP
# Format: biochemical
# Sequence of PKCθ (Q04759 whole entry): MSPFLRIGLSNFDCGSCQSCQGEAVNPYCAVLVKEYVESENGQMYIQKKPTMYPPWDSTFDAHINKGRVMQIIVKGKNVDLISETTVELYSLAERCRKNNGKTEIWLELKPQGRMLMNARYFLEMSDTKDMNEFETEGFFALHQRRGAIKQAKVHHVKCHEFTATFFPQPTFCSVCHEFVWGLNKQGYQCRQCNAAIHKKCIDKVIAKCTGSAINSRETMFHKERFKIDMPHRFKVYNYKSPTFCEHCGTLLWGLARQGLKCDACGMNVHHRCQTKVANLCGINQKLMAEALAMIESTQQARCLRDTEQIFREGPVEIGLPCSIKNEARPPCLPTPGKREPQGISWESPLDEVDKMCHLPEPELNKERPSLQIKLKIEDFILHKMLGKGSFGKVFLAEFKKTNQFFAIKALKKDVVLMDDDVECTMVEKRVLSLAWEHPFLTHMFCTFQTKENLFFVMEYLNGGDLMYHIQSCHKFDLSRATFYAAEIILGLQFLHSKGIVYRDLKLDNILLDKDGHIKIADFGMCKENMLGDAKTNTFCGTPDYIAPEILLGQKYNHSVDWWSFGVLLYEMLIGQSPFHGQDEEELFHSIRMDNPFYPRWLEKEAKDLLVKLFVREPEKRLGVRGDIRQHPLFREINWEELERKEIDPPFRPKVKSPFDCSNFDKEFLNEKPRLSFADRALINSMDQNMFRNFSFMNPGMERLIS
row,Compound,IC50
1,"O=C1NC(=O)C(c2c3n(c4ccccc24)CCC(CO)C3)=C1c1c[nH]c2sccc12 (centres unmarked) [Example #1, 3-(8-(Hydroxymethyl)-6,7,8,9-tetrahydropyrido[1,2-a]indol-10-yl)-4-(6H-thieno[2,3-b]pyrrol-4-yl)-1H-pyrrole-2,5-dione]",0.1 to 0.5 µM
2,"CN(C)CC1CCn2c(c(C3=C(c4c[nH]c5sccc45)C(=O)NC3=O)c3ccccc32)C1 (centres unmarked) [Example #2, 3-(8-((Dimethylamino)methyl)-6,7,8,9-tetrahydropyrido[1,2-a]indol-10-yl)-4-(6H-thieno[2,3-b]pyrrol-4-yl)-1H-pyrrole-2,5-dione]",< 0.1 µM
3,"CN1CCN(c2nc(C3=C(c4c[nH]c5sccc45)C(=O)NC3=O)c3ccccc3n2)CC1 [F.1.1, 3-(2-(4-Methylpiperazin-1-yl)quinazolin-4-yl)-4-(6H-thieno[2,3-b]pyrrol-4-yl)-1H-pyrrole-2,5-dione]",< 0.1 µM
4,"CN1CCN(c2nc(C3=C(c4c[nH]c5ccsc45)C(=O)NC3=O)c3ccccc3n2)CC1 [F.1.2, 3-(2-(4-Methylpiperazin-1-yl)quinazolin-4-yl)-4-(4H-thieno[3,2-b]pyrrol-6-yl)-1H-pyrrole-2,5-dione]",< 0.1 µM
5,Cc1cc2c(C3=C(c4nc(N5CCN(C)CC5)nc5ccccc45)C(=O)NC3=O)c[nH]c2s1 [F.1.3],0.1 to 0.5 µM
6,O=C1NC(=O)C(c2c[nH]c3sccc23)=C1c1nc(N2CCN3CCCC3C2)nc2ccccc12 (centres unmarked) [F.2.1],< 0.1 µM
7,"CN1CCN(c2nc(C3=C(c4c[nH]c5ccsc45)C(=O)NC3=O)c3c(F)cccc3n2)CC1 [F.3.1, 3-(5-Fluoro-2-(4-methylpiperazin-1-yl)quinazolin-4-yl)-4-(4H-thieno[3,2-b]pyrrol-6-yl)-1H-pyrrole-2,5-dione]",< 0.1 µM
8,"O=C1NC(=O)C(c2nc(N3CCN4CCC[C@@H]4C3)nc3cccc(F)c23)=C1c1c[nH]c2ccsc12 [F.3.2, (R)-3-(5-Fluoro-2-(hexahydropyrrolo[1,2-a]pyrazin-2(1H)-yl)quinazolin-4-yl)-4-(4H-thieno[3,2-b]pyrrol-6-yl)-1H-pyrrole-2,5-dione]",< 0.1 µM
9,CN1CCN(c2cc(C3=C(c4c[nH]c5ccsc45)C(=O)NC3=O)c3ccccc3n2)CC1 [F.3.3],< 0.1 µM
10,CN1CCN(c2nc(C3=C(c4c[nH]c5ccsc45)C(=O)NC3=O)c3ccsc3n2)CC1 [F.3.4],< 0.1 µM
11,CN1CCN(c2nc(C3=C(c4c[nH]c5ccsc45)C(=O)NC3=O)c3ccc(F)cc3n2)CC1 [F.3.5],< 0.1 µM
12,"CN1CCN(c2nc(C3=C(c4c[nH]c5sccc45)C(=O)NC3=O)c3c(F)cccc3n2)CC1 [F.4.1, 3-(5-Fluoro-2-(4-methylpiperazin-1-yl)quinazolin-4-yl)-4-(6H-thieno[2,3-b]pyrrol-4-yl)-1H-pyrrole-2,5-dione]",< 0.1 µM
13,"CN1CCN(c2nc(C3=C(c4c[nH]c5sccc45)C(=O)NC3=O)c3ccsc3n2)CC1 [F.4.2, 3-(2-(4-Methylpiperazin-1-yl)thieno[2,3-d]pyrimidin-4-yl)-4-(6H-thieno[2,3-b]pyrrol-4-yl)-1H-pyrrole-2,5-dione]",< 0.1 µM
14,"O=C1NC(=O)C(c2nc(N3CCN4CCC[C@@H]4C3)nc3cccc(F)c23)=C1c1c[nH]c2sccc12 [F.4.3, (R)-3-(5-Fluoro-2-(hexahydropyrrolo[1,2-a]pyrazin-2(1H)-yl)quinazolin-4-yl)-4-(6H-thieno[2,3-b]pyrrol-4-yl)-1H-pyrrole-2,5-dione]",< 0.1 µM
15,CN(C)[C@H]1CC[C@@H](n2nc(C3=C(c4c[nH]c5sccc45)C(=O)NC3=O)c3ccccc32)CC1 [F.4.5],< 0.1 µM
16,CN1CCC(Cn2nc(C3=C(c4c[nH]c5sccc45)C(=O)NC3=O)c3ccccc32)CC1 [F.4.6],< 0.1 µM
17,CN1CCC(n2nc(C3=C(c4c[nH]c5sccc45)C(=O)NC3=O)c3ccccc32)CC1 [F.4.7],0.1 to 0.5 µM
18,CN1CCN(c2nccc(C3=C(c4c[nH]c5sccc45)C(=O)NC3=O)n2)CC1 [F.4.8],0.5 to 1 µM
19,CN1CCN(c2nc(C3=C(c4c[nH]c5sccc45)C(=O)NC3=O)c3sccc3n2)CC1 [F.4.9],< 0.1 µM
20,CN1CCN(c2nc3c(c(C4=C(c5c[nH]c6sccc56)C(=O)NC4=O)n2)CCC3)CC1 [F.4.10],0.1 to 0.5 µM
21,COc1cccc2nc(N3CCN(C)CC3)nc(C3=C(c4c[nH]c5sccc45)C(=O)NC3=O)c12 [F.4.11],0.1 to 0.5 µM
22,CN1CCN(c2nc(C3=C(c4c[nH]c5sccc45)C(=O)NC3=O)c3c(O)cccc3n2)CC1 [F.4.12],0.5 to 1 µM

row,Compound,IC50
1,CN1CCN(c2nc(C3=C(c4c[nH]c5sccc45)C(=O)NC3=O)c3cc(Cl)ccc3n2)CC1 [F.4.13],< 0.1 µM
2,COc1ccc2nc(N3CCN(C)CC3)nc(C3=C(c4c[nH]c5sccc45)C(=O)NC3=O)c2c1 [F.4.14],< 0.1 µM
3,CN1CCN(c2nc(C3=C(c4c[nH]c5sccc45)C(=O)NC3=O)c3cc(F)ccc3n2)CC1 [F.4.15],< 0.1 µM
4,CN1CCN(c2nc3c(c(C4=C(c5c[nH]c6sccc56)C(=O)NC4=O)n2)CCCC3)CC1 [F.4.16],0.1 to 0.5 µM
5,CN1CCC(Cn2cc(C3=C(c4c[nH]c5sccc45)C(=O)NC3=O)c3ccccc32)CC1 [F.4.17],< 0.1 µM
6,CN(C)[C@H]1CC[C@@H](Cn2nc(C3=C(c4c[nH]c5sccc45)C(=O)NC3=O)c3ccccc32)CC1 [F.4.18],0.1 to 0.5 µM
7,CCN1CCC(Cn2nc(C3=C(c4c[nH]c5sccc45)C(=O)NC3=O)c3ccccc32)CC1 [F.4.19],0.1 to 0.5 µM
8,O=C1NC(=O)C(c2nn(CC3CCN(CCF)CC3)c3ccccc23)=C1c1c[nH]c2sccc12 [F.4.20],0.1 to 0.5 µM
9,COCCN1CCC(Cn2nc(C3=C(c4c[nH]c5sccc45)C(=O)NC3=O)c3ccccc32)CC1 [F.4.21],0.1 to 0.5 µM
10,CN1CC(Cn2nc(C3=C(c4c[nH]c5sccc45)C(=O)NC3=O)c3ccccc32)C1 [F.4.22],< 0.1 µM
11,CN1CCC(C)(Cn2nc(C3=C(c4c[nH]c5sccc45)C(=O)NC3=O)c3ccccc32)CC1 [F.4.23],0.1 to 0.5 µM
12,CN1CCN(c2nc(C3=C(c4c[nH]c5sccc45)C(=O)NC3=O)c3ccncc3n2)CC1 [F.4.24],< 0.1 µM
13,CN1CCN(c2nc(C3=C(c4c[nH]c5sccc45)C(=O)NC3=O)c3ncccc3n2)CC1 [F.4.25],0.1 to 0.5 µM
14,COCCN1CCC(Cn2nc(C3=C(c4c[nH]c5sccc45)C(=O)NC3=O)c3ccccc32)C1 (centres unmarked) [F.4.26],0.1 to 0.5 µM
15,CN(C)CCCCn1nc(C2=C(c3c[nH]c4sccc34)C(=O)NC2=O)c2ccccc21 [F.4.27],0.5 to 1 µM
16,CN1CCCC(Cn2nc(C3=C(c4c[nH]c5sccc45)C(=O)NC3=O)c3ccccc32)C1 (centres unmarked) [F.4.28],0.1 to 0.5 µM
17,CN(C)CCCn1nc(C2=C(c3c[nH]c4sccc34)C(=O)NC2=O)c2ccccc21 [F.4.29],0.1 to 0.5 µM
18,Cc1cccc2nc(N3CCN(C)CC3)nc(C3=C(c4c[nH]c5sccc45)C(=O)NC3=O)c12 [F.4.30],< 0.1 µM
19,Cc1ccc2nc(N3CCN(C)CC3)nc(C3=C(c4c[nH]c5sccc45)C(=O)NC3=O)c2c1 [F.4.31],< 0.1 µM
20,Cc1cccc2c(C3=C(c4c[nH]c5sccc45)C(=O)NC3=O)nc(N3CCN(C)CC3)nc12 [F.4.32],0.5 to 1 µM
21,CN1CCC(Cc2nc(C3=C(c4c[nH]c5sccc45)C(=O)NC3=O)c3ccccn23)CC1 [F.4.33],0.5 to 1 µM
22,CN1CCN(c2cc3ccc(F)cc3c(C3=C(c4c[nH]c5sccc45)C(=O)NC3=O)n2)CC1 [F.4.34],< 0.1 µM

row,Compound,IC50
1,CC(C1CCN(C)CC1)n1nc(C2=C(c3c[nH]c4sccc34)C(=O)NC2=O)c2ccccc21 (centres unmarked) [F.4.35],0.5 to 1 µM
2,CN1CCN(c2nc(C3=C(c4c[nH]c5sccc45)C(=O)NC3=O)c3cccn3n2)CC1 [F.4.36],< 0.1 µM
3,CN1CCC(Cc2cn(C3=C(c4c[nH]c5sccc45)C(=O)NC3=O)c3ccccc23)CC1 [F.4.37],< 0.1 µM
4,CN1CCC(Cn2cc(C3=C(c4c[nH]c5ccccc45)C(=O)NC3=O)c3ccsc32)CC1 [F.5.1],< 0.1 µM
5,"O=C1NC(=O)C(c2c[nH]c3ccsc23)=C1c1nc(N2CCNCC2)nc2ccccc12 [G.1.1, 3-(2-(piperazin-1-yl)quinazolin-4-yl)-4-(4H-thieno[3,2-b]pyrrol-6-yl)-1H-pyrrole-2,5-dione]",< 0.1 µM
6,O=C1NC(=O)C(c2c[nH]c3sccc23)=C1c1nc(N2C[C@@H]3C[C@H]2CN3)nc2ccccc12 [G.1.2],0.1 to 0.5 µM
7,O=C1NC(=O)C(c2c[nH]c3ccsc23)=C1c1nc(N2CC3CNCC3C2)nc2ccccc12 (centres unmarked) [G.1.3],0.5 to 1 µM
8,NCC1CCN(c2nc(C3=C(c4c[nH]c5ccsc45)C(=O)NC3=O)c3ccccc3n2)CC1 [G.1.4],0.1 to 0.5 µM
9,O=C1NC(=O)C(c2c[nH]c3sccc23)=C1c1nc(N2CCNCC2)nc2ccccc12 [G.1.5],< 0.1 µM
10,O=C1NC(=O)C(c2c[nH]c3ccsc23)=C1c1nc(N2CCC3(CCCNC3)C2)nc2ccccc12 (centres unmarked) [G.1.6],0.1 to 0.5 µM
11,CNC1CCN(c2nc(C3=C(c4c[nH]c5sccc45)C(=O)NC3=O)c3ccccc3n2)C1 (centres unmarked) [G.1.7],0.1 to 0.5 µM
12,O=C1NC(=O)C(c2c[nH]c3ccsc23)=C1c1nc(NC2CCNCC2)nc2ccccc12 [G.1.8],0.1 to 0.5 µM
13,O=C1NC(=O)C(c2c[nH]c3ccsc23)=C1c1nc(NCC2CCCCN2)nc2ccccc12 (centres unmarked) [G.1.9],0.5 to 1 µM
14,CC1(N)CCN(c2nc(C3=C(c4c[nH]c5sccc45)C(=O)NC3=O)c3ccccc3n2)CC1 [G.1.10],< 0.1 µM
15,O=C1NC(=O)C(c2nn(C3CCNCC3)c3ccccc23)=C1c1c[nH]c2sccc12 [G.1.11],0.1 to 0.5 µM
16,O=C1NC(=O)C(c2nn(CC3CCNCC3)c3ccccc23)=C1c1c[nH]c2sccc12 [G.1.12],< 0.1 µM
17,O=C1NC(=O)C(c2c[nH]c3sccc23)=C1c1nc(N2CCC3(CC2)CNC3)nc2ccccc12 [G.1.13],0.1 to 0.5 µM
18,CNCC1CCN(c2nc(C3=C(c4c[nH]c5sccc45)C(=O)NC3=O)c3ccccc3n2)C1 (centres unmarked) [G.1.14],0.5 to 1 µM
19,CNCC1CCN(c2nc(C3=C(c4c[nH]c5sccc45)C(=O)NC3=O)c3ccccc3n2)CC1 [G.1.15],0.1 to 0.5 µM
20,O=C1NC(=O)C(c2c3ccccc3nn2CC2CCNCC2)=C1c1c[nH]c2sccc12 [G.1.16],0.1 to 0.5 µM
21,O=C1NC(=O)C(c2c[nH]c3sccc23)=C1c1nc(N2CCNCC2)nc2sccc12 [G.1.18],< 0.1 µM
